Results on 21 compounds are retold here after patent publication US9540380B2, “Imidazotriazinone compounds” (Ironwood Pharmaceuticals, Inc., priority 2010, dated 2017).

The experiment concerns the target T1, PDE9A2 (Homo sapiens, UniProt O76083).
T1 construct: purchased Reaction Biology Corporation, Malvern, Pa
The experiment in a line: Phosphodiesterase Enzyme Screening Assay, PDE9A2 (Caliper LabChip mobility-shift). Format: biochemical. The following applies: 10 concentrations, 4.0 μM cGMP substrate, 1 hour at R.T.; read-out: Band (PDE9A2 IC50). The source says: Compounds of the invention were screened against PDE1A, PDE1B, PDE2A, PDE3A, PDE3B, PDE4A1A, PDE4B1, PDE4D3, PDE5A1, PDE6C, PDE7A, PDE8A1, PDE9A2, PDE10A2 AND PDE11A isoforms of the phosphodiesterase enzyme to determine activity and overall selectivity through comparative analysis. The assay generally consists of testing the compounds of the invention at 10 concentrations. Where 8-methoxy-IBMX and Zaprinast were used as reference inhibitors.
The phosphodiesterase enzyme isoforms were obtained from a commercial retailer (Reaction Biology Corporation, Malvern, Pa.) for use in the instant screening assay.
The analysis was completed using the Caliper LabChip 3000 and a 12-sipper LabChip. LabChip assays are separations-based, meaning that the product and substrate are electrophoretically separated, thereby minimizing interferences and yielding the highest data quality available on any screening platform. Z′ factors for both the EZ Reader and LC3000 enzymatic assays are routinely in the 0.8 to 0.9 range. High Z′ values, few false positives, few false negatives and analytical quality reproducibility are the reasons cited for the increasing reliance on the LabChip assays.
The off-chip incubation mobility-shift phosphodiesterase assay uses a microfluidic chip to measure the conversion of a fluorescent cyclic AMP substrate to a 5′-AMP product, or a cyclic GMP substrate to a 5′-GMP product. The reaction mixture, from a microtiter plate well, is introduced through a capillary sipper onto the chip, where the fluorescent substrate and product are separated by electrophoresis and detected via laser-induced fluorescence. […] The precision of microfluidics allows researchers to detect subtle interactions between drug candidates and therapeutic targets. The technology is able to detect both strong and weak inhibitors with high accuracy, and routinely identifies drug candidates that conventional techniques miss.
Reactions were carried out in 100 mM HEPES (pH 7.5), 5 mM MgCl2, 1 mM DTT, 0.003% Brij, 4.0 μM cGMP substrate. The reaction was started by addition of cGMP or cAMP and incubated for 1 hour at R.T. The reaction was terminated by the addition of stop buffer containing 100 mM HEPES (pH 7.5), 15 mM EDTA, 0.015% Brij-35, 5% DMSO. Cyclic AMP/GMP substrate and 5′-AMP/5′-GMP product were separated by charge using electrophoretic mobility shift. Product formed was compared to control wells to determine inhibition or enhancement of enzyme activity.
One or more reference compounds, depending on phosphodiesterase isoform, selected from 8-methoxy-IBMX, Zaprinast, Trequinsin, Pentoxifyline, Rolipram, and Vinpocetine, Dipyridamole, and BRL-50481 were run alongside client samples to ensure data quality. The resulting IC50 is compared against the historical average and must be within 3-fold of this average.
Data points were averages of quadruplicate wells and error bars represented the SEM for each point. IC50s were determined using GraphPad Prism Version 5.01 and the log (inhibitor) vs. response variable slope curve fit.

The structures appear in SMILES notation. Where only a bound is given, the exact number is not on record here.

T1 sequence (O76083 1-533 isoform O76083-2): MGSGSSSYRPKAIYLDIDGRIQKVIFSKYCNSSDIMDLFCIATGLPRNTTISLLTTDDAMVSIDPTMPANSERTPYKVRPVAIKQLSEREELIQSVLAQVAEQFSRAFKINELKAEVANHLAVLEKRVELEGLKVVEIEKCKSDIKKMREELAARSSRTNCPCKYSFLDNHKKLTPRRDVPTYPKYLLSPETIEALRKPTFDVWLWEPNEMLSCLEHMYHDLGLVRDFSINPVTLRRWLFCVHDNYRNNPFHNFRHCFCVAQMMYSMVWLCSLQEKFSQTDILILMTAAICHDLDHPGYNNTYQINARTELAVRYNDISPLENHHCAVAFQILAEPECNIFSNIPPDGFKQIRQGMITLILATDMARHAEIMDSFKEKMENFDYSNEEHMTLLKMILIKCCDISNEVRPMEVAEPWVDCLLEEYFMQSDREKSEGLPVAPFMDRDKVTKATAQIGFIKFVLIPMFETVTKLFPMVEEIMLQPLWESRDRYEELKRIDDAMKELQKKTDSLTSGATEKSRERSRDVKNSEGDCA

As to `Cc1ccc(Cl)cc1-c1ncc2c(=O)[nH]c([C@@H]3CN(Cc4ccccc4)C[C@H]3C)nn12` (single isomer, unassigned) [(+)-2-((3,4-trans)-1-benzyl-4-methylpyrrolidin-3-yl)-7-(5-chloro-2-methylphenyl)imidazo[5,1-f][1,2,4]triazin-4(3H)-one], the IC50 is less than 1000 nM.

With `CC1CN([C@H](C)c2ccccc2)CC1c1nn2c(C3CCOCC3)ncc2c(=O)[nH]1` (single isomer, unassigned; (-)), the IC50 is less than 1000 nM.

Regarding `COc1cccc(CN2C[C@@H](C)[C@H](c3nn4c(C5CCOCC5)ncc4c(=O)[nH]3)C2)n1` (single isomer, unassigned) [(+)-2-((3,4-trans)-1-((6-methoxypyridin-2-yl)methyl)-4-methylpyrrolidin-3-yl)-7-(tetrahydro-2H-pyran-4-yl)imidazo[5,1-f][1,2,4]triazin-4(3H)-one], the half-inhibitory concentration (IC50) is less than 1000 nM.

Regarding `Cc1ccccc1-c1ncc2c(=O)[nH]c([C@@H]3CN(Cc4ncccn4)C[C@H]3C)nn12` (single isomer, unassigned) [(−)-2-((3,4-trans)-4-methyl-1-(pyrimidin-2-ylmethyl)pyrrolidin-3-yl)-7-(o-tolyl)imidazo[5,1-f][1,2,4]triazin-4(3H)-one], the IC50 lay within 1000 to 10000 nM.

In the case of `CC(=O)N1CCC(c2ncc3c(=O)[nH]c([C@@H]4CN(Cc5ccccc5)C[C@H]4C)nn23)CC1` (single isomer, unassigned) [(−)-7-(1-acetylpiperidin-4-yl)-2-((3,4-trans)-1-benzyl-4-methylpyrrolidin-3-yl)imidazo[5,1-f][1,2,4]triazin-4(3H)-one], the IC50 was greater than 10000 nM.

`C[C@@H]1CN(Cc2ncccn2)C[C@H]1c1nn2c(C3CCC(F)(F)CC3)ncc2c(=O)[nH]1` (single isomer, unassigned) [(+)-7-(4,4-difluorocyclohexyl)-2-((3,4-trans)-4-methyl-1-(pyrimidin-2-ylmethyl)pyrrolidin-3-yl)imidazo[5,1-f][1,2,4]triazin-4(3H)-one]: the IC50 was less than 1000 nM.

Turning to `C[C@@H]1CN(Cc2cccc(F)c2)C[C@H]1c1nn2c(C3CCOCC3)ncc2c(=O)[nH]1` (single isomer, unassigned) [(−)-2-((3,4-trans)-1-(3-fluorobenzyl)-4-methylpyrrolidin-3-yl)-7-(tetrahydro-2H-pyran-4-yl)imidazo[5,1-f][1,2,4]triazin-4(3H)-one], the half-maximal inhibitory concentration (IC50) is less than 1000 nM.

For the compound `C[C@@H]1CN(Cc2ccccn2)C[C@H]1c1nn2c(C3CCOCC3)ncc2c(=O)[nH]1` (single isomer, unassigned) [(+)-2-((3,4-trans)-4-methyl-1-(pyridin-2-ylmethyl)pyrrolidin-3-yl)-7-(tetrahydro-2H-pyran-4-yl)imidazo[5,1-f][1,2,4]triazin-4(3H)-one], the IC50 is less than 1000 nM.

For the compound `Cc1ccc(Cl)cc1-c1ncc2c(=O)[nH]c([C@@H]3CN(Cc4ccccc4)C[C@H]3C)nn12` (single isomer, unassigned) [(−)-2-((3,4-trans)-1-benzyl-4-methylpyrrolidin-3-yl)-7-(5-chloro-2-methylphenyl)imidazo[5,1-f][1,2,4]triazin-4(3H)-one], the concentration for half-maximal inhibition (IC50) lay within 1000 to 10000 nM.

For the compound `C[C@@H]1CN(Cc2ncc3ccccc3n2)C[C@H]1c1nn2c(C3CCOCC3)ncc2c(=O)[nH]1` (single isomer, unassigned) [(−)-2-((3,4-trans)-4-methyl-1-(quinazolin-2-ylmethyl)pyrroli] [(−)-2-((3,4-trans)-4-methyl-1-(quinazolin-2-ylmethyl)pyrrolidin-3-yl)-7-(tetrahydro-2H-pyran-4-yl)imidazo[5,1-f][1,2,4]triazin-4(3H)-one], the half-maximal inhibitory concentration (IC50) was less than 1000 nM.

Take `C[C@@H]1CN(Cc2ccccc2)C[C@H]1c1nn2c(C3CCC(F)(F)CC3)ncc2c(=O)[nH]1` (single isomer, unassigned) [(+)-2-((3,4-trans)-1-benzyl-4-methylpyrrolidin-3-yl)-7-(4,4-difluorocyclohexyl)imidazo[5,1-f][1,2,4]triazin-4(3H)-one]: the concentration for half-maximal inhibition (IC50) was less than 1000 nM.

Consider `C[C@@H]1CN(Cc2ccc3ccccc3n2)C[C@H]1c1nn2c(C3CCOCC3)ncc2c(=O)[nH]1` (single isomer, unassigned) [(+)-2-((3,4-trans)-4-methyl-1-(quinolin-2-ylmethyl)pyrrolidin-3-yl)-7-(tetrahydro-2H-pyran-4-yl)imidazo[5,1-f][1,2,4]triazin-4(3H)-one], for which the 50% inhibitory concentration (IC50) was less than 1000 nM.

Regarding `CC1CN(Cc2ncccn2)CC1c1nn2c(C34CC5CC(CC(C5)C3)C4)ncc2c(=O)[nH]1` (single isomer, unassigned; (+)), the IC50 was less than 1000 nM.

With `C[C@@H]1CN(Cc2ccccc2)C[C@H]1c1nn2c(-c3ccoc3)ncc2c(=O)[nH]1` (single isomer, unassigned) [(+)-2-((3,4-trans)-1-benzyl-4-methylpyrrolidin-3-yl)-7-(furan-3-yl)imidazo[5,1-f][1,2,4]triazin-4(3H)-one], the IC50 was less than 1000 nM.

Take `C[C@@H]1CN(Cc2ncc3ccccc3n2)C[C@H]1c1nn2c(C3CCOCC3)ncc2c(=O)[nH]1` (single isomer, unassigned) [(+)-2-((3,4-trans)-4-methyl-1-(quinazolin-2-ylmethyl)pyrrolidin-3-yl)-7-(tetrahydro-2H-pyran-4-yl)imidazo[5,1-f][1,2,4]triazin-4(3H)-one]: the IC50 is less than 1000 nM.

With `C[C@@H]1CN(Cc2ccc3ccccc3n2)C[C@H]1c1nn2c(C3CCOCC3)ncc2c(=O)[nH]1` (single isomer, unassigned) [(−)-2-((3,4-trans)-4-methyl-1-(quinolin-2-ylmethyl)pyrrolidi] [(−)-2-((3,4-trans)-4-methyl-1-(quinolin-2-ylmethyl)pyrrolidin-3-yl)-7-(tetrahydro-2H-pyran-4-yl)imidazo[5,1-f][1,2,4]triazin-4(3H)-one], the IC50 was less than 1000 nM.

For `C[C@@H]1CN(Cc2ccccc2F)C[C@H]1c1nn2c(C3CCOCC3)ncc2c(=O)[nH]1` (single isomer, unassigned) [(+)-2-((3,4-trans)-1-(2-fluorobenzyl)-4-methylpyrrolidin-3-yl)-7-(tetrahydro-2H-pyran-4-yl)imidazo[5,1-f][1,2,4]triazin-4(3H)-one], the half-inhibitory concentration (IC50) was less than 1000 nM.

Regarding `CC1CN(Cc2ccccc2)CC1c1nn2c(C34CC5CC(CC(C5)C3)C4)ncc2c(=O)[nH]1` (single isomer, unassigned; (-)), the IC50 is greater than 10000 nM.

As for `Cc1cc(F)ccc1-c1ncc2c(=O)[nH]c([C@@H]3CN(Cc4ccccc4)C[C@H]3C)nn12` (single isomer, unassigned) [(−)-2-((3,4-trans)-1-benzyl-4-methylpyrrolidin-3-yl)-7-(4-fluoro-2-methylphenyl)imidazo[5,1-f][1,2,4]triazin-4(3H)-one], the half-inhibitory concentration (IC50) was greater than 10000 nM.

Consider `CC(=O)N1CCC(c2ncc3c(=O)[nH]c([C@@H]4CN(Cc5ccccc5)C[C@H]4C)nn23)CC1` (single isomer, unassigned) [(+)-7-(1-acetylpiperidin-4-yl)-2-((3,4-trans)-1-benzyl-4-methylpyrrolidin-3-yl)imidazo[5,1-f][1,2,4]triazin-4(3H)-one], for which the IC50 is less than 1000 nM.

As to `Cc1cc(F)ccc1-c1ncc2c(=O)[nH]c([C@@H]3CN(Cc4ccccc4)C[C@H]3C)nn12` (single isomer, unassigned) [(+)-2-((3,4-trans)-1-benzyl-4-methylpyrrolidin-3-yl)-7-(4-fluoro-2-methylphenyl)imidazo[5,1-f][1,2,4]triazin-4(3H)-one], the IC50 is less than 1000 nM.

The IC50 is the point on the concentration scale where inhibition reaches its midpoint.
